For one assay, the target named is T1, SETD7 (Homo sapiens, UniProt Q8WTS6).
T1 sequence (Q8WTS6 1-366): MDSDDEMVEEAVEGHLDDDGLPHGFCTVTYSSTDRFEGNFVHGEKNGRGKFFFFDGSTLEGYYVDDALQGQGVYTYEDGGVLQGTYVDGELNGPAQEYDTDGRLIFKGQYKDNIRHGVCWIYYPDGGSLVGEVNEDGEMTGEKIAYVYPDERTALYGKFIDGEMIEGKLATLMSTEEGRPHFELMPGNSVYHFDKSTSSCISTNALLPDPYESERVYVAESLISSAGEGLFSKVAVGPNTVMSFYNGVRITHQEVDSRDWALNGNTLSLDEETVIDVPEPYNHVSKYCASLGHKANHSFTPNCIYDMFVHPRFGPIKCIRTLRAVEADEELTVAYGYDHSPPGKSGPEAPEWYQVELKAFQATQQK
The following applies: Francis et al. 2018; cited from earlier work.

The test system of a further assay is inflammatory TMD pain. As to the kind of experiment: Place escape/avoidance paradigm (PEAP) pain behavior in inflammatory TMD model. The format is in vivo, rat. The following applies: for time spent in the dark half of the PEAP chamber: CFA plus PFI-2 injection. On the procedure: Effect of PFI-2 Mediation on Inflammatory Conditions and Pain: Tmj pain is assessed as meal duration and via Place Escape Avoidance Paradigm (PEAP)-based measures (FIG. 1, Vertebrate Justification section). Testing is performed in both male and female rats as sex differences have been observed in humans and animals. Female animals are tested for the estrous cycle and the results are reported for the di-estrus, estrus, and pro-estrus phases (Kramer, Bellinger, 2009).
Peap Testing: the Chamber Used for the Place Escape Avoidance Paradigm (PEAP) testing is a 30 cm×30 cm acrylic box in which half the box is covered in black cloth. Each individual rat is placed into the chamber; due to their nocturnal circadian rhythm, rodents prefer the dark side of the chamber. Rats on the dark side of the chamber receive a stimulus at the injected side, whereas rats with their head on the clear side of the chamber are stimulated on the contralateral non-injected side with a 60 g filament every 15 seconds. The stimulus is administered below the eye and caudal to the whisker pad. The time spent on the dark side of the box is recorded in 5 min bins, testing is performed for a total of 30 min on the test day and thereafter on a one day a week basis for 8 weeks as previously described (Stinson et al. 2017; 2019).
Injection of PFI-2-Col I, PFI-2-decm Hydrogel and PFI-2-exosome solution into the TMJ: Four groups (SV, SP, CV, and CP) receive injections of the saline plus carrier, saline plus PFI-2 carrier, CFA plus carrier, or CFA plus PFI-2 carrier, respectively. The TMJ injection procedure is described in FIG. 1. Forty-eight hours after the injection of saline or CFA solution, PFI-2 (10 μM) in a carrier, or the carrier alone, is injected every two days, or once within 10 days. The injection times and effect duration of PFI-2 on both inflammatory degeneration and pain are optimized.
PEAP behavior of animals was investigated after administration of saline, CFA, or CFA and a PFI-2 carried by either a Col I hydrogel or a dECM hydrogel.

Assay [1] relates to TNFα-induced cell infiltration. As to the kind of experiment: Subcutaneous implantation of coated collagen sponges. Particulars: sponges coated with TNFα plus PFI-2. Type of assay: in vivo. From the text: In vivo analysis was examined by subcutaneous implantation of collagen sponges coated with PBS, TNF-α, or TNF-α and PFI-2.
For a further assay, the system named is TMJ tissues. As to the kind of experiment: CFA injection rat model of inflammatory TMD: swelling, uCT and histology of TMJ tissues. Type of assay: in vivo.

Entries after “also recorded” stand apart in the source; their conditions may differ.

Consider `O=C([C@@H](Cc1cccc(C(F)(F)F)c1)NS(=O)(=O)c1cc(F)c2c(c1)CCNC2)N1CCCC1` [PFI-2], for which, on SETD7, the “inflammation and tissue regeneration in periodontal diseases” value is “suppresses inflammation and promotes tissue regeneration”. For the same compound, in the assay with inflammatory TMD pain (collagen gel (Col I hydrogel) as carrier), the “time spent in the dark half of the PEAP chamber” value is recorded as “significantly rescued; also recorded: significantly increased”. Besides, the “time spent in the dark half of the PEAP chamber” value with inflammatory TMD pain (dECM hydrogel as carrier, compared with collagen carrier) was “far more significant; also recorded: further improved”. Also, the inflammatory pain entry in the assay on inflammatory TMD pain (inflammatory TMD model) is reported as “greatly reduced pain; also recorded: reduction in inflammatory pain; also recorded: reduced inflammatory pain”. In addition, the “time on the dark side of PEAP chambers” value in the assay with inflammatory TMD pain (mice subjected to inflammatory temporo-mandibular joint pain) was “dramatically reduced time”. Also, in assay [1], the “cell infiltration into collagen sponges” value was “reversed inflammatory cell infiltration in tissue implants; also recorded: reversed this effect” and the “extracellular matrix remodeling in collagen sponges” value is “promoted extracellular matrix remodeling; also recorded: promoted ECM remodeling”. In addition, the “inflammation-induced retardation of chondrocyte differentiation / condylar growth plate structure” value with TMJ tissues (PFI-2 injected following CFA induction of inflammatory conditions) was “able to reverse it; also recorded: restored condyle growth plate structure and function; also recorded: reversed”. In addition, the “bone volume, mechanical properties and thickness of functional condyle layers” value in the assay on TMJ tissues (inflammatory conditions, three PFI-2 delivery modalities) is on record as “restores outcomes to near-physiological values”. Moreover, in the assay on TMJ tissues (rats, 48 hours after injection, CFA-induced (10% increase with CFA)), the “regional swelling / distance between the two ear tragi” value is on record as “no swelling was observed”. Moreover, in the assay on TMJ tissues (rats, CFA model), the “collagen fibers in the TMJ disc (Pico Sirius red staining)” value is given as “lightened; also recorded: conversion to light red, thinner fibers”; the “structure and function of fibrocartilage in the TMJ (H&E)” value was “rescued the structure and function of fibrocartilage”; the “thickness of the fibrous and proliferative cell layers / hypertrophic zones (H&E)” value is listed as “rescued; also recorded: reduced”. In addition, the “TMJ disc thickening and fusion with the condyle (H&E)” value in the assay with TMJ tissues (rats, CFA model, paraffin-embedded TMJ tissues) is “rescued; also recorded: detachment of the TMJ disc and condyle”. Also, in the assay with TMJ tissues (rats, CFA plus PFI-2 injection), the “condylar bone volume and joint space between temporal fossa and condyle (uCT)” value is recorded as “rescued”. Besides, the “fibrous adhesion of TMJ disc and condylar surface (Masson trichrome)” value in the assay with TMJ tissues (rats, CFA-induced inflammation) is listed as “prevented the attachment; also recorded: released fibrous adhesion; also recorded: de-attached the TMJ disc from the condyle”.
